Test results from paper PMC6360668, “Discovery and evaluation of ZT55, a novel highly-selective tyrosine kinase inhibitor of JAK2^V617F against myeloproliferative neoplasms” (Journal of Experimental & Clinical Cancer Research : CR, 2019).
pIC50: −log10 of the molar value.

Biological target: JAK2 (Homo sapiens, UniProt O60674)
Experiment: HTRF KinEASE cell-free kinase assay with recombinant human JAK2
Type: biochemical

Sequence of JAK2 (O60674 whole entry): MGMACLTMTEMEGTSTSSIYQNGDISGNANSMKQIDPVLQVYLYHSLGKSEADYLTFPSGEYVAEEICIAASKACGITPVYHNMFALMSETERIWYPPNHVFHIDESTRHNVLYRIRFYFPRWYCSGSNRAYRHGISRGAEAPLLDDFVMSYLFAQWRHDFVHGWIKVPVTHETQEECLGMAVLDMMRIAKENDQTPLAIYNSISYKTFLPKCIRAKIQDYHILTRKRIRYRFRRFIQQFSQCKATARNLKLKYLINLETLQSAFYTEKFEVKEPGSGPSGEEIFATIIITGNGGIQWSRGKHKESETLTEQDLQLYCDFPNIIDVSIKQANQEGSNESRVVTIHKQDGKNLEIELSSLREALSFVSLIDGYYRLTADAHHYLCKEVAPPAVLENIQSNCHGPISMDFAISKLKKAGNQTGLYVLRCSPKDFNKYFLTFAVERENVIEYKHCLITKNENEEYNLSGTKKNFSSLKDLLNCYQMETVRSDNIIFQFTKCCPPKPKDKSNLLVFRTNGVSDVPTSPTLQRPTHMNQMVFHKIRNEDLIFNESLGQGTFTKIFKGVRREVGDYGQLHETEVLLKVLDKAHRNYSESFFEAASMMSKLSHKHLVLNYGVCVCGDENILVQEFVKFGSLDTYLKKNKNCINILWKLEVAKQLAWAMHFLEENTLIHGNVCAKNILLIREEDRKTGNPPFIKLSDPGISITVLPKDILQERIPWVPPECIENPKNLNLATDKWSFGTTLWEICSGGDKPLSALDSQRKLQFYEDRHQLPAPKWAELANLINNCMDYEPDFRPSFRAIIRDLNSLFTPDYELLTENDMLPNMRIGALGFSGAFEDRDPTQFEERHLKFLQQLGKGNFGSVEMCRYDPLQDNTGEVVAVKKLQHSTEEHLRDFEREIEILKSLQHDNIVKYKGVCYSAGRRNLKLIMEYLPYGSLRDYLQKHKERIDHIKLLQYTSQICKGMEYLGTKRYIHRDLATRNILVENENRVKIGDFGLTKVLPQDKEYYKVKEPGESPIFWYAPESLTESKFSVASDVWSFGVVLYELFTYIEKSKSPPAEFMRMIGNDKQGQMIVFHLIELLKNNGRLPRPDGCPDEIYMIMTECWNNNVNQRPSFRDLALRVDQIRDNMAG

- pIC50: 7.51
SMILES: COc1ccccc1NC(=O)Cc1cn(O)c2ccccc12 [ZT55]
